Drawing on PubChem BioAssay AID248 (DTP/NCI, 2004), this text covers T/C for 22 molecules.

The assay deals with L1210 leukemia ip in BDF1 mice, survival T/C. The assay can be described thus: NCI In Vivo Anticancer Drug Screen. Data for tumor model L1210 Leukemia (intraperitoneal) in B6D2F1 (BDF1) mice. The note with it: endpoint: mean survival time, higher = longer survival. An outline of the steps: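 Ratio derived from survival: compound-dosed mice over vehicle-dosed mice, all bearing a transplantable tumor.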

Setting [1] is: dose: 100.0 mg/kg/injection, schedule: Q01DX009 (ip), vehicle: saline with Tween-80.
The mark [2] stands for this setting: dose: 100.0 mg/kg/injection, schedule: Q04DX003 (ip), vehicle: saline with Tween-80.
[3] abbreviates: dose: 200.0 mg/kg/injection, schedule: Q01DX009 (ip), vehicle: saline with Tween-80.
Where [4] appears, read: dose: 200.0 mg/kg/injection, schedule: Q04DX003 (ip), vehicle: saline with Tween-80.
Where [5] appears, read: dose: 400.0 mg/kg/injection, schedule: Q01DX009 (ip), vehicle: saline with Tween-80.
The mark [6] stands for this setting: dose: 400.0 mg/kg/injection, schedule: Q04DX003 (ip), vehicle: saline with Tween-80.
Setting [7] is: dose: 100.0 mg/kg/injection, schedule: Q04DX003 (ip), vehicle: Klucel (hydroxypropylcellulose) (HPC).
The mark [8] stands for this setting: dose: 200.0 mg/kg/injection, schedule: Q04DX003 (ip), vehicle: Klucel (hydroxypropylcellulose) (HPC).
Setting [9] is: dose: 400.0 mg/kg/injection, schedule: Q04DX003 (ip), vehicle: Klucel (hydroxypropylcellulose) (HPC).
[10] abbreviates: dose: 100.0 mg/kg/injection, schedule: Q01DX001 (ip), vehicle: saline.
Where [11] appears, read: dose: 200.0 mg/kg/injection, schedule: Q01DX001 (ip), vehicle: saline.
Setting [12] is: dose: 400.0 mg/kg/injection, schedule: Q01DX001 (ip), vehicle: saline.
[13] abbreviates: dose: 100.0 mg/kg/injection, schedule: Q04DX002 (ip), vehicle: saline with Tween-80.
Setting [14] is: dose: 200.0 mg/kg/injection, schedule: Q04DX002 (ip), vehicle: saline with Tween-80.
Where [15] appears, read: dose: 400.0 mg/kg/injection, schedule: Q04DX002 (ip), vehicle: saline with Tween-80.

Inconclusive results and toxic doses are left out.

For the molecule `CCCCCCCCCCCCCCCCOc1ccccc1C(C)=O`, the T/C was 92 % of control under setting [1]; 89 % of control under setting [2]; 96 % of control under setting [3]; 98 % of control under setting [4]; 93 % of control under setting [5]; 93 % of control under setting [6].
Turning to `NC(=O)Oc1ccc(Cc2ccccc2)cc1`, the T/C was 97 % of control (dose: 100.0 mg/kg/injection, schedule: Q01DX009 (ip), vehicle: Klucel (hydroxypropylcellulose) (HPC)); 95 % of control under setting [7]; 103 % of control (dose: 200.0 mg/kg/injection, schedule: Q01DX009 (ip), vehicle: Klucel (hydroxypropylcellulose) (HPC)); 97 % of control under setting [8]; 110 % of control (dose: 400.0 mg/kg/injection, schedule: Q01DX009 (ip), vehicle: Klucel (hydroxypropylcellulose) (HPC)); 95 % of control under setting [9].
Consider `CCC(=O)C(C)C(=O)Nc1ccccc1` (stereo unspecified), for which the T/C by setting is: (dose: 100.0 mg/kg/injection, schedule: Q01DX001 (ip), vehicle: carboxymethylcellulose (CMC)) 102 % of control; (dose: 200.0 mg/kg/injection, schedule: Q01DX001 (ip), vehicle: carboxymethylcellulose (CMC)) 94 % of control; (dose: 400.0 mg/kg/injection, schedule: Q01DX001 (ip), vehicle: carboxymethylcellulose (CMC)) 100 % of control.
With `CCOC(=O)C(CCCCC(NC(C)=O)(C(=O)OCC)C(=O)OCC)(NC(C)=O)C(=O)OCC`, the T/C is 92 % of control under setting [1], 94 % of control under setting [3] and 92 % of control under setting [5].
Turning to `O=C(Nc1ccc(C2=NCCN2)cc1)c1cccc2c(C(=O)Nc3ccc(C4=NCCN4)cc3)cccc12`, the T/C was 94 % of control (dose: 9.7 mg/kg/injection, schedule: Q01DX Z (ip), vehicle: carboxymethylcellulose (CMC)); 107 % of control (dose: 14.6 mg/kg/injection, schedule: Q01DX Z (ip), vehicle: carboxymethylcellulose (CMC)); 122 % of control (dose: 22.0 mg/kg/injection, schedule: Q01DX Z (ip), vehicle: carboxymethylcellulose (CMC)); 156 % of control (dose: 30.0 mg/kg/injection, schedule: Q01DX Z (ip), vehicle: carboxymethylcellulose (CMC)); 124 % of control (dose: 33.0 mg/kg/injection, schedule: Q01DX Z (ip), vehicle: carboxymethylcellulose (CMC)); 155 % of control (dose: 49.0 mg/kg/injection, schedule: Q01DX Z (ip), vehicle: carboxymethylcellulose (CMC)). The T/C runs as follows: (dose: 60.0 mg/kg/injection, schedule: Q01DX Z (ip), vehicle: carboxymethylcellulose (CMC)) 204 % of control; (dose: 74.0 mg/kg/injection, schedule: Q01DX Z (ip), vehicle: carboxymethylcellulose (CMC)) 155 % of control; (dose: 111.0 mg/kg/injection, schedule: Q01DX Z (ip), vehicle: carboxymethylcellulose (CMC)) 176 % of control; (dose: 120.0 mg/kg/injection, schedule: Q01DX Z (ip), vehicle: carboxymethylcellulose (CMC)) 175 % of control.
For `ONC(=Nc1ccccc1)c1ccccc1`, the T/C was 104 % of control (dose: 100.0 mg/kg/injection, schedule: Q04DX003 (ip), vehicle: saline) and 101 % of control (dose: 200.0 mg/kg/injection, schedule: Q04DX003 (ip), vehicle: saline).
In the case of `CC(C)(CBr)CC(=O)NC1CCCCC1`, the T/C reads like this: (dose: 50.0 mg/kg/injection, schedule: Q01DX001 (ip), vehicle: saline) 98 % of control; under setting [10], 98 % of control; under setting [11], 96 % of control; under setting [12], 104 % of control.
With `CC(C)c1ccc(/C=C/C(=O)c2ccc(F)cc2)cc1`, the T/C under setting [1] is 90 % of control; the T/C under setting [13] was 97 % of control; the T/C under setting [3] is 90 % of control; the T/C under setting [14] was 86 % of control; the T/C under setting [5] was 93 % of control; the T/C under setting [15] was 97 % of control.
As to `CC1C/C(=C\NC(N)=O)C(=O)O1` (stereo unspecified), the T/C reads like this: (dose: 100.0 mg/kg/injection, schedule: Q01DX009 (ip), vehicle: water) 96 % of control; (dose: 100.0 mg/kg/injection, schedule: Q04DX003 (ip), vehicle: water) 94 % of control; (dose: 200.0 mg/kg/injection, schedule: Q01DX009 (ip), vehicle: water) 100 % of control; (dose: 200.0 mg/kg/injection, schedule: Q04DX003 (ip), vehicle: water) 89 % of control; (dose: 400.0 mg/kg/injection, schedule: Q01DX009 (ip), vehicle: water) 102 % of control; (dose: 400.0 mg/kg/injection, schedule: Q04DX003 (ip), vehicle: water) 96 % of control.
As for `CCOC(=O)c1cnn(C(N)=O)c1N`, the T/C runs as follows: under setting [1], 108 % of control; under setting [3], 96 % of control.
Turning to `Cc1cc(N(CCOS(C)(=O)=O)CCOS(C)(=O)=O)ccc1C=Nc1ccc(-c2csc(-c3ccc(Cl)cc3)n2)cc1`, the T/C was 112 % of control (dose: 25.0 mg/kg/injection, schedule: Q01DX009 (ip), vehicle: Klucel (hydroxypropylcellulose) (HPC)) and 86 % of control (dose: 50.0 mg/kg/injection, schedule: Q01DX009 (ip), vehicle: Klucel (hydroxypropylcellulose) (HPC)).
Regarding `CCOC(=O)N1C=Cc2c(c3ccccc3n2C)N1C(=O)OCC`, the T/C is, setting by setting: under setting [10], 93 % of control; under setting [11], 104 % of control; under setting [12], 100 % of control.
As for `CNC(=S)N/N=C/c1ccc2c(c1)CCC2`, the T/C reads like this: under setting [7], 100 % of control; under setting [8], 100 % of control; under setting [9], 91 % of control.
Turning to `CCc1c(Cl)c(C)cc(O)c1Cl`, the T/C (dose: 25.0 mg/kg/injection, schedule: Q01DX009 (ip), vehicle: gum acacia) was 98 % of control; the T/C (dose: 25.0 mg/kg/injection, schedule: Q04DX003 (ip), vehicle: gum acacia) was 100 % of control; the T/C (dose: 50.0 mg/kg/injection, schedule: Q01DX009 (ip), vehicle: gum acacia) is 98 % of control; the T/C (dose: 50.0 mg/kg/injection, schedule: Q04DX003 (ip), vehicle: gum acacia) is 90 % of control; the T/C (dose: 100.0 mg/kg/injection, schedule: Q04DX003 (ip), vehicle: gum acacia) is 96 % of control.
In the case of `NCc1ccc(NC(=O)c2ccc(C(=O)Nc3ccc(CN)cc3)c(N)c2)cc1`, the T/C is 100 % of control (dose: 21.0 mg/kg/injection, schedule: Q01DX Z (ip), vehicle: water) and 98 % of control (dose: 42.0 mg/kg/injection, schedule: Q01DX Z (ip), vehicle: water).
As for `O=C(Cl)c1ccccc1/C=C/c1ccccc1`, the T/C runs as follows: under setting [1], 89 % of control; under setting [3], 89 % of control; under setting [5], 93 % of control.
Take `O=c1c(Cl)c(C(Cl)(Cl)Cl)[nH]c2c(Cl)cc(Cl)cc12`: the T/C runs as follows: (dose: 6.25 mg/kg/injection, schedule: Q01DX009 (ip), vehicle: other) 93 % of control; (dose: 12.5 mg/kg/injection, schedule: Q01DX009 (ip), vehicle: other) 107 % of control.
For the molecule `O=C1NC2c3ccccc3CCC12` (stereo unspecified), the T/C reads like this: under setting [13], 102 % of control; under setting [14], 100 % of control; under setting [15], 96 % of control.
In the case of `C/C(=N\Nc1ccccc1)C(C)C`, the T/C (dose: 75.0 mg/kg/injection, schedule: Q04DX003 (ip), vehicle: Klucel (hydroxypropylcellulose) (HPC)) is 118 % of control; the T/C (dose: 150.0 mg/kg/injection, schedule: Q04DX003 (ip), vehicle: Klucel (hydroxypropylcellulose) (HPC)) was 94 % of control; the T/C (dose: 300.0 mg/kg/injection, schedule: Q04DX003 (ip), vehicle: Klucel (hydroxypropylcellulose) (HPC)) is 96 % of control.
For `[Cl][Hg][Cl].c1ccc(CSc2ccccc2)cc1`, the T/C (dose: 5.0 mg/kg/injection, schedule: Q01DX001 (ip), vehicle: carboxymethylcellulose (CMC)) was 105 % of control.
Turning to `O=C1CC(=O)N(c2ccccc2)O1`, the T/C under setting [2] is 92 % of control, the T/C under setting [4] was 112 % of control and the T/C under setting [6] is 91 % of control.
On to `O=C(OC1CCC(c2ccccc2)C1)c1cc([N+](=O)[O-])cc([N+](=O)[O-])c1` (stereo unspecified), for which the T/C (dose: 75.0 mg/kg/injection, schedule: Q04DX003 (ip), vehicle: other) was 96 % of control; the T/C (dose: 150.0 mg/kg/injection, schedule: Q04DX003 (ip), vehicle: other) is 92 % of control; the T/C (dose: 300.0 mg/kg/injection, schedule: Q04DX003 (ip), vehicle: other) is 87 % of control.
